{
  "source": "patent US20240398764A1",
  "about": "“METHODS OF TREATING DISEASES ASSOCIATED WITH SENESCENT CELL ACCUMULATION” (University of Florida Research Foundation, Incorporated, priority 2021, published 2024)",
  "origin": "cited, not measured here",
  "key": {"platelets [1]": {"system": "platelets", "settings": "literature statement; cited from earlier work"}, "SnCs": {"system": "SnCs", "settings": "vs ABT263; cited from earlier work"}, "platelets [2]": {"system": "platelets", "settings": "vs ABT263; cited from earlier work"}},
  "data": [
    {"smiles": "CC1(C)CCC(CN2CCN(c3ccc(C(=O)NS(=O)(=O)c4ccc(NCC5CCOCC5)c([N+](=O)[O-])c4)c(Oc4cnc5[nH]ccc5c4)c3)CC2)=C(c2ccc(Cl)cc2)C1", "note": "[ABT199]", "values": [
      {"measurement": "Platelet apoptosis / thrombocytopenia", "setting": "platelets [1]", "result": "does not induce thrombocytopenia"}
    ]},
    {"smiles": "CC1(C)CCC(c2ccc(Cl)cc2)=C(CN2CCN(c3ccc(C(=O)NS(=O)(=O)c4ccc(N[C@H](CCN5CCOCC5)CSc5ccccc5)c(S(=O)(=O)C(F)(F)F)c4)cc3)CC2)C1", "note": "[ABT263]", "values": [
      {"measurement": "Platelet apoptosis / thrombocytopenia", "setting": "platelets [1]", "result": "induces platelet apoptosis and results in severe thrombocytopenia"}
    ]},
    {"smiles": "CC1(C)CCC(c2ccc(Cl)cc2)=C(CN2CCN(c3ccc(C(=O)NS(=O)(=O)c4ccc(N[C@H](CCN5CCN(C(=O)CCCn6cc(COCCOCCNc7cccc8c7C(=O)N(C7CCC(=O)NC7=O)C8=O)nn6)CC5)CSc5ccccc5)c(S(=O)(=O)C(F)(F)F)c4)cc3)CC2)C1", "note": "(stereo partly shown) [PZ15227]", "values": [
      {"measurement": "Potency against SnCs compared with ABT263", "setting": "SnCs", "result": "equally or slightly more potent against SnCs"},
      {"measurement": "Toxicity to platelets compared with ABT263", "setting": "platelets [2]", "result": "less toxic to platelets"}
    ]}
  ]
}
